Test results taken from US20220289719A1, “HETEROCYCLIC COMPOUNDS AS MNK INHIBITORS” (NANJING INNOCARE PHARMA TECH CO., LTD., priority 2017, published 2022).
Where a name gives a salt, the structure may show the parent alone.

Key:
[1] = target: T1, Human recombinant full-length MNK1 protein (Homo sapiens, UniProt Q9BUB5); experiment: MNK1 inhibitory activity assay (ADP-Glo in vitro kinase assay); format: biochemical; settings: 10 concentration points
T1 construct: Human recombinant full-length MNK1 protein; purchased Thermo PR9138A
T1 sequence (Q9BUB5 whole entry): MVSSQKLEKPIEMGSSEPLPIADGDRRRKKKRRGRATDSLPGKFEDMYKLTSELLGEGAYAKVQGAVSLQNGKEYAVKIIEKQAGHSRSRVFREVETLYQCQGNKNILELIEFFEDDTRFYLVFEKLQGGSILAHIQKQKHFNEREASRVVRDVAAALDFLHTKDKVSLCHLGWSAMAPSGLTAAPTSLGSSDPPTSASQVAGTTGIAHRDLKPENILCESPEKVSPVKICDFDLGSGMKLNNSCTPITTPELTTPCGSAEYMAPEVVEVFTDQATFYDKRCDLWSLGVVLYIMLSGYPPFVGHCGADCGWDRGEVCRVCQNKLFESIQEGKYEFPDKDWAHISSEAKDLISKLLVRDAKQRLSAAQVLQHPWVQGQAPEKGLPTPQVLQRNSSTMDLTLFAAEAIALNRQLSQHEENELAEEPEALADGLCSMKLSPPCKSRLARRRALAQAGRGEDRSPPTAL
Procedure: MNK1 Inhibitory Activity Assay: Evaluation of the effects of compounds of the invention on […] (MNK1) activity using in vitro kinase assays. The experimental methods are summarized as follows: The in vitro activity of MNK1 was determined by measuring the level of ADP produced in the kinase reaction using the ADP-Glo Kinase Assay Kit. The reaction buffer consisted of the following components: 50 mM HEPES, pH 7.5, 10 mM MgCl2, 1 mM EGTA, 0.01% Brij35. Human recombinant full-length MNK1 protein (Thermo, Cat. No. PR9138A) was diluted with a reaction buffer to a 3.13 ng/uL kinase solution. The substrate reaction solution consisted of a substrate diluted to 0.75 mg/ml in reaction buffer ([…], available from […] Domestic Company), 2250 uM ATP, the ADP-Glo reagent and kinase assay solution from Promega kit (Promega, V9102). […] If the compound IC50 value is very low, the initial concentration of the compound can be lowered. To a 384-well assay plate (Thermo, Cat. No. 264706) were added 1 uL of compound solution and 2 uL of MNK1 kinase solution. The mixture was mixed well and incubated for 30 minutes at room temperature; then 2 uL of substrate reaction solution was added, the reaction mixture was incubated for 120 minutes at room temperature. The reaction was terminated after an equal volume of 5uLADP-Glo solution was added, and the remaining ATP was completely consumed. After mixing for 60 minutes at room temperature, 10 ul of the kinase assay solution was added, and the mixture was uniformly mixed, and allowed to stand at room temperature for 40 minutes in the dark. The detection solution converts ADP into new ATP through coupled luciferase/luciferin, and ATP is converted into optical signal by Ultr-GloTM luciferase, which can be detected by Envision. The intensity of the light signal is proportional correlated with the amount of ADP produced in the kinase reaction, therefore, the activity of MNK1 kinase can be determined. In this experiment, the group without protein was used as a negative control (100% inhibition). The group with protein but without compounds was used as a positive control (0% inhibition).

MV-4-11 cells = experiment: MV-4-11 cell proliferation inhibition assay (CellTiter-Glo luminescent cell viability); format: cell-based; settings: Homo sapiens, MV4-11, 120 hours, CTG readout, 8 concentration points
Procedure: MV-4-11 Cell Proliferation Inhibition Assay:
The effect of the compounds of the present invention on the proliferation of MV-4-11 cells was evaluated using a luminescent cell viability assay.
The experimental methods are summarized as follows:
The cell proliferation status of MV-4-11 was detected using the CellTilter-Glo (CTG) assay kit: the luminescence signal generated in the assay is proportional to the number of viable cells in the culture medium by using a unique, stable luciferase to detect viable cell metabolism indicator ATP.
CellTilter-Glo reagent (Promega, G7572) consists of CellTilter-Glo lyophilized powder and ellTilter-Glo buffer, which can be used to dissolve the lyophilized powder into the buffer.
MV-4-11 cells (ATCC #CRL-9591, purchased from Nanjing Kezhen, item number CBP60522) were cultured in IMDM complete medium (Thermofisher, 12440053) containing 10% FBS (GBICO, 10099-141) and 100 units/ml streptomycin mixture (Thermofisher, 15140122). when the cells coverage rearched 80-90% in the culture container, dilute and plant with 0.25% trypsin (including EDTA) (Thermofisher, 25200056) in a white 384-well plate (Thermofisher, 164610), 400 cells per well (36 μl […] complete medium), then 384-well plates were incubated overnight (18-20 hours) in a 37° C., % CO2 incubator.
Compounds were solubilized to 10 mM in 100% DMSO, then sequentially diluted in 4-fold with DMSO to a minimum concentration of […], and each concentration was diluted 50-fold with FBS-free IMDM medium. If the compound IC50 value is very low, the initial concentration of the compound can be lowered. 4 μl of the diluted IMDM compound was added to each well and mixed gently by centrifugation. The GI50 (50% Growth Inhibition) of the compounds was determined in this experiment, including the T0 group before the cell proliferation (including the T0 positive and T0 negative control groups), and the T5 group after 120 hours of cell proliferation (containing the T5 positive and T5 negative control groups).). T0 represents the number of cells before cell proliferation before compound addition, including positive control: the group with the addition of cells and 0.2% DMSO was used as the positive control. The group with medium alone was used as the negative control, T0 group before the addition of compound will be used for CTG test. […] Gently shake for 5 minutes to ensure sufficient cell lysis, leave for 10 minutes to stabilize the luminescence signal, and then read the luminescence signal with EnVision (Perkin Elmer).
The inhibition of MV-4-11 cell proliferation of the compounds was calculated by the following formula: […]
The IC50 value of the compound was calculated from the 8 concentration points by XLfit (ID Business Solutions Ltd., UK) software using the following formula: […]

SMILES	IC50 [1]	IC50 (MV-4-11 cells)
COc1cc2[nH]ncc2cc1Nc1ncncc1-c1nc2cccc(N3CCN[C@@H](C)C3)c2n1C [Compound 64, 6-Methoxy-N-(4-{1-methyl-7-[(3S)-3-methylpiperazin-1-yl]-1H-benzimidazol-2-yl}pyrimidine-5-)-1H-indazol-5-amine]	437 nM	–
COc1cc2[nH]ncc2cc1Nc1ncnc(N)c1-c1ccccn1 [Compound 44, 5-((6-amino-5-(pyridin-2-yl)pyrimidin-4-yl)amino-6-methoxy-1H-indazole formate]	1000 nM	–
COC(=O)n1ncc2cc(Nc3cc(NC(=O)C4CC4)ncn3)c(OC)cc21 [Compound 17, 1-Methoxyacyl-5-(6-cyclopropionamidopyrimidin-4-ylamino)-6-methoxyindazole]	27.9 nM	–
CC(C)Oc1cc2[nH]ncc2cc1Nc1cc(NC(=O)C2CC2)ncn1 [Compound 7, 5-(6-cyclopropionamidopyrimidin-4-ylamino)-6-isopropoxy-1H-indazole formate]	44.9 nM	–
COc1c(Nc2cc(N)ncn2)ccc2c1CNC2=O [Compound 66, 5-((6-Aminopyrimidin-4-yl)amino)-4-methoxyisoindolin-1-one hydrochloride]	38.5 nM	–
COc1cc2c(cc1Nc1cc(NC(=O)C3CC3)ncn1)ncn2C(=O)OC(C)(C)C [Compound 60, 1-tert-butoxycarbonyl-5-(6-cyclopropionamidopyrimidin-4-ylamino)-6-methoxybenzimidazole]	792 nM	–
COc1cc2c(cnn2C(=O)OC(C)(C)C)cc1Nc1cc(NC(C)=O)ncn1 [Compound 1, 1-tert-Butoxycarbonyl-5-(6-acetylaminopyrimidin-4-ylamino)-6-methoxyindazole]	15.5 nM	–
COc1cc2[nH]ncc2cc1Nc1ncnc2c1ncn2C [Compound 59, N-(6-Methoxy-1H-indazol-5-yl)-9-methyl-9H-purin-6-amine]	432 nM	–
COc1c(Nc2cc(NC(=O)C3CC3)ncn2)ccc2c1C(C)(C)N(C)C2=O [Compound 73, 5-((6-(Cyclopropionamido)pyrimidin-4-yl)amino)-4-methoxy-2,3,3-trimethylisoindole-1-one]	188 nM	–
COc1cc2[nH]ncc2cc1Nc1cc(Nc2ccc(Cl)cn2)ncn1 [Compound 24, 5-(6-((5-Chloropyridin-2-yl)amino)pyrimidin-4-ylamino)-6-methoxy-1H-indazole formate]	42.2 nM	–
COc1cc2c(cnn2C(=O)OC(C)(C)C)cc1Nc1cc(NC(=O)C2CC2)ncn1 [Compound 3, 1-tert-Butoxycarbonyl-5-(6-cyclopropionamidopyrimidin-4-ylamino)-6-methoxyindazole]	11.3 nM	–
COc1cc2[nH]ncc2cc1Nc1ncnc(N)c1C#N [Compound 42, 5-((6-Amino-5-cyanopyrimidin-4-yl)amino)-6-methoxy-1H-indazole]	600 nM	–
COc1c(Nc2cc(Nc3ccncn3)ncn2)ccc2c1CNC2=O [Compound 70, 5-((6-(Pyrimidin-4-ylamino)pyrimidin-4-yl)amino)-4-methoxyisodihydroindol-1-one]	17 nM	–

Further molecules by falling IC50 [1], results first:

IC50 [1]	IC50 (MV-4-11 cells)	SMILES
97.1 nM	–	COc1cn2nccc2cc1Nc1cc(NC(=O)C2CC2)ncn1 [Compound 63, N-(6-((6-Methoxypyrazolo[1,5-a]pyridin-5-yl)amino)pyrimidin-4-yl)cyclopropanecarboxamide]
96.6 nM	–	COc1c(Nc2cc(Nc3ncccc3Cl)ncn2)ccc2c1CNC2=O [Compound 83, 5-((6-((3-Chloropyridin-2-yl)amino)pyrimidin-4-yl)amino)-4-methoxyisoindolin-1-one]
75.3 nM	–	CNc1cncnc1Nc1cc2cn[nH]c2cc1OC [Compound 62, 5-(5-Methylaminopyrimidin-4-yl) amino)-6-methoxy-1H-indazole formate]
36.6 nM	–	COc1cc2[nH]ncc2cc1Nc1cc(Nc2ncc(Cl)cn2)ncn1 [Compound 26, 5-(6-((5-chloropyrimidin-2-yl)amino)pyrimidin-4-ylamino)-6-methoxy-1H-indazole]
31.3 nM	–	COc1cc2[nH]ncc2cc1Nc1cc(Nc2cccc(Cl)n2)ncn1 [Compound 23, 5-(6-((6-Chloropyridin-2-yl)amino)pyrimidin-4-ylamino)-6-methoxy-1H-indazole]
29.8 nM	–	CCOc1cc2[nH]ncc2cc1Nc1cc(NC(=O)C2CC2)ncn1 [Compound 6, 5-(6-Cyclopropionamidopyrimidin-4-ylamino)-6-ethoxy-1H-indazole]
22.8 nM	–	COCCOc1cncnc1Nc1cc2cn[nH]c2cc1OC [Compound 53]
18.5 nM	–	COc1c(Nc2cc(Nc3cccc(Cl)n3)ncn2)ccc2c1CNC2=O [Compound 86, 5-((6-((6-Chloropyridin-2-yl)amino)pyrimidin-4-yl)amino)-4-methoxyisoindolin-1-one]
14.4 nM	–	COc1cc2[nH]ncc2cc1Nc1ncncc1OC [Compound 52]
13.9 nM	–	COc1c(Nc2cc(Nc3ccc(Cl)cn3)ncn2)ccc2c1CNC2=O [Compound 85, 5-((6-((5-Chloropyridin-2-yl)amino)pyrimidin-4-yl)amino)-4-methoxyisoindolin-1-one]
8.2 nM	295 nM	COc1c(Nc2cc(Nc3ccccn3)ncn2)ccc2c1CNC2=O [Compound 68, 5-((6-(Pyridin-2-ylamino)pyrimidin-4-yl)amino)-4-methoxyisodihydroindol-1-one]
5 nM	278 nM	COc1c(Nc2cc(Nc3cnccn3)ncn2)ccc2c1CNC2=O [Compound 84, 5-((6-(Pyrazin-2-ylamino)pyrimidin-4-yl)amino)-4-methoxyisodihydroindol-1-one formate]
2.7 nM	483 nM	COc1c(Nc2cc(NC(=O)C3CC3)ncn2)ccc2c1CNC2=O [Compound 67, 5-((6-Cyclopropanamidopyrimidin-4-yl)amino)-4-methoxyisodihydroindole-1-one]
1.45 nM	301 nM	COc1cc2[nH]ncc2cc1Nc1cc(NC(=O)C2CC2)ncn1 [Compound 4, 5-(6-Cyclopropionamidopyrimidin-4-ylamino)-6-methoxy-1H-indazole]
